# In PubChem BioAssay (NCI):
# Where “and” joins values, the source holds several entries; their conditions need not be identical. Equal entries are not always repeated.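 How tested: cells in 96-well plates exposed to compound for 48 hours at five concentrations. GI50 marks 50% less growth. TGI marks complete inhibition of growth.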
# Key:
# Experiment in all cases: growth of human tumour cells (NCI), 48 h
# HCC-2998 colon = system: HCC-2998 colon
# HL-60(TB) leukemia = system: HL-60(TB) leukemia
# NCI-H23 lung = system: NCI-H23 lung
# NCI-H522 lung = system: NCI-H522 lung
# OVCAR-3 ovarian = system: OVCAR-3 ovarian
# OVCAR-5 ovarian = system: OVCAR-5 ovarian
# OVCAR-8 ovarian = system: OVCAR-8 ovarian
# RPMI-8226 leukemia = system: RPMI-8226 leukemia
# SF-268 CNS = system: SF-268 CNS
# SNB-19 CNS = system: SNB-19 CNS
Compound,GI50 (HCC-2998 colon),TGI (HCC-2998 colon),GI50 (HL-60(TB) leukemia),TGI (HL-60(TB) leukemia),GI50 (NCI-H23 lung),TGI (NCI-H23 lung),GI50 (NCI-H522 lung),TGI (NCI-H522 lung),GI50 (OVCAR-3 ovarian),TGI (OVCAR-3 ovarian),GI50 (OVCAR-5 ovarian),TGI (OVCAR-5 ovarian),GI50 (OVCAR-8 ovarian),TGI (OVCAR-8 ovarian),GI50 (RPMI-8226 leukemia),TGI (RPMI-8226 leukemia),GI50 (SF-268 CNS),TGI (SF-268 CNS),GI50 (SNB-19 CNS),TGI (SNB-19 CNS)
N.N.N.N.O=C([O-])C(Cl)Cl.O=C([O-])C(Cl)Cl.[Co+3].[O-][Cl+3]([O-])([O-])[O-],> 100 µM,> 100 µM,> 100 µM,> 100 µM,> 100 µM,> 100 µM,> 100 µM,> 100 µM,> 100 µM,> 100 µM,> 100 µM,> 100 µM,> 100 µM,> 100 µM,> 100 µM,> 100 µM,> 100 µM,> 100 µM,> 100 µM,> 100 µM
CS(=O)(=O)CSCSSCS(C)(=O)=O,–,> 100 µM,–,55.7 µM,–,> 95.9 µM,–,34 µM,–,> 100 µM,–,> 93.8 µM,–,> 100 µM,–,55.3 µM,–,77.5 µM,–,> 100 µM
COc1ccc(N2C(=O)[C@H]3CC(C)c4c([nH]c5ccccc45)[C@H]3C2=O)cc1 (stereo partly specified),–,69 µM,–,20.1 µM,–,29.4 µM,–,4.24 µM,–,6.68 µM,–,> 85.6 µM,–,55.9 µM,–,39.3 µM,–,> 76.2 µM,–,> 71.8 µM
Cc1cc2c(cc1Cl)SC1=NN(C)C(N(C)C)N1S2(=O)=O (stereo unspecified),> 100 µM,> 100 µM,> 100 µM,> 100 µM,> 100 µM,> 100 µM,> 100 µM,> 100 µM,> 100 µM,> 100 µM,> 100 µM,> 100 µM,> 100 µM,> 100 µM,> 100 µM,> 100 µM,> 100 µM,> 100 µM,> 100 µM,> 100 µM
COc1cc(C(=O)Nc2cc3c(cc2Oc2cc(C)cc(C)c2)C(=O)N(C)[C@@H](CC(=O)N(C)O)C(=O)N3)c(Br)c(OC)c1OC,< 0.00333 µM,< 0.00333 µM,< 0.00333 µM,< 0.00333 µM,< 0.00333 µM,0.00543 µM,< 0.00333 µM,< 0.00333 µM,< 0.00333 µM,< 0.00333 µM,< 0.00333 µM,0.00751 µM,< 0.00333 µM,0.0181 µM,< 0.00333 µM,< 0.00333 µM,< 0.00333 µM,0.0067 µM,< 0.00333 µM,0.00576 µM
CCC[n+]1cc2cc(OC)c(OC)cc2c2c1-c1cc3c(cc1C2)OCO3,3.99 µM,14.9 µM,11 µM,> 54.1 µM,2.34 µM,13.2 µM,0.0792 µM,1.71 µM,0.955 µM,5.78 µM,32.9 µM,67.8 µM,2.18 µM,6.23 µM,2.34 µM,16 µM,0.568 µM,5.84 µM,0.254 µM,1.68 µM
CCn1c2ccc(O)cc2c2c(C)c3c[n+](C)ccc3c(C)c21,3.9 µM,23.4 µM,40.8 µM,> 100 µM,1.44 µM,25.8 µM,1.46 µM,10.4 µM,3.59 µM,32.4 µM,23.8 µM,> 100 µM,1.47 µM,41.4 µM,7.43 µM,68 µM,0.122 µM,4.33 µM,0.272 µM,6.88 µM
Cc1[nH]nc(C(=O)n2nc(N)c3ccccc32)c1[N+](=O)[O-],> 100 µM,> 100 µM,–,> 100 µM,> 100 µM,> 100 µM,> 100 µM,> 100 µM,> 100 µM,> 100 µM,> 100 µM,> 100 µM,> 100 µM,> 100 µM,> 100 µM,> 100 µM,> 100 µM,> 100 µM,> 100 µM,> 100 µM
CCOP(=O)(OCC)OC(C#N)c1ccc(-c2ccccc2)cc1 (stereo unspecified),–,81.7 µM,–,36.9 µM,–,> 100 µM,–,28.5 µM,–,39.1 µM,–,> 100 µM,–,37.4 µM,–,45.8 µM,–,44.4 µM,–,> 100 µM
CN1CC[C@]2(C)c3ccc(O)cc3CC3CCCC1C32C (stereo partly specified),–,> 100 µM,–,> 100 µM,–,> 100 µM,–,> 100 µM,–,> 100 µM,–,> 100 µM,–,> 100 µM,–,> 100 µM,–,> 100 µM,–,> 100 µM
CCN(CC)C(=S)SC,–,> 100 µM,–,> 100 µM,–,> 100 µM,–,> 100 µM,–,> 100 µM,–,> 100 µM,–,> 100 µM,–,> 100 µM,–,> 100 µM,–,> 100 µM
CCCOc1ccc2nc(NC(=O)OC)[nH]c2c1,0.232 µM,–,0.171 µM,0.681 µM,0.34 µM,> 100 µM,0.235 µM,2.28 µM,0.396 µM,> 100 µM,0.441 µM,> 100 µM,0.485 µM,> 100 µM,0.502 µM,> 100 µM,2.43 µM,> 100 µM,0.384 µM,> 100 µM
COC(=O)C(CC(=O)Nc1ccc(C)cc1)C(=O)C(=O)Nc1ccccc1C(C)C (stereo unspecified),–,> 100 µM,–,> 100 µM,–,> 100 µM,–,> 100 µM,–,> 100 µM,–,> 100 µM,–,> 100 µM,–,> 100 µM,–,> 100 µM,–,> 100 µM
CN1C(=O)N(C)C2C1NN=c1s/c(=C\c3ccc(F)cc3)c(=O)n12 (stereo unspecified),13.4 µM,> 100 µM,1.63 µM,4.53 µM,4.23 µM,> 100 µM,2.22 µM,> 100 µM,1.24 µM,8.09 µM,5.44 µM,> 100 µM,3.78 µM,> 100 µM,2.56 µM,8.91 µM,4.62 µM,> 100 µM,5.57 µM,> 100 µM
COC(=O)C1=C(C(=O)OC)SC(=CC#CC=C2SC(C(=O)OC)=C(C(=O)OC)S2)S1,–,> 100 µM,–,> 100 µM,–,17.8 µM,–,54.8 µM,–,17 µM,–,> 100 µM,–,20.8 µM,–,> 100 µM,–,> 60.1 µM,–,26.2 µM
CC1C(=O)OCC2=CCN3CCC(OC(=O)C(C)C1(C)O)C23 (stereo unspecified),–,> 100 µM,–,> 100 µM,–,> 100 µM,–,> 100 µM,–,> 100 µM,–,> 100 µM,–,> 100 µM,–,> 100 µM,–,> 100 µM,–,> 100 µM
Nc1ccc(C(=O)CC(N)C(=O)O)cc1O (stereo unspecified),–,> 100 µM,–,> 100 µM,–,> 100 µM,–,> 100 µM,–,> 100 µM,–,> 100 µM,–,> 100 µM,–,> 100 µM,–,> 100 µM,–,> 100 µM
COc1ccc(-c2oc3c(OC)c(OC)c(OC)c(OC)c3c(=O)c2OC)cc1OC,–,> 100 µM,–,46.7 µM,–,> 100 µM,–,49.4 µM,–,54.4 µM,–,> 100 µM,–,93.6 µM,–,34 µM,–,35.2 µM,–,> 100 µM
O=c1cccc(C2CC(CO)C3CCCCN3C2)[nH]1 (stereo unspecified),–,> 100 µM,–,> 100 µM,–,> 100 µM,–,> 100 µM,–,> 100 µM,–,> 100 µM,–,> 100 µM,–,> 100 µM,–,> 100 µM,–,> 100 µM
CC[O-].CC[O-].O=S(=O)([O-])c1ccc([O-])c2ncccc12.O=S(=O)([O-])c1ccc([O-])c2ncccc12.[Ti+4],68.2 µM,> 100 µM,40.9 µM,> 100 µM,> 100 µM,> 100 µM,32.8 µM,> 100 µM,47.6 µM,> 100 µM,33.5 µM,> 100 µM,74.5 µM,> 100 µM,> 100 µM,> 100 µM,42.1 µM,> 100 µM,58.3 µM,> 100 µM
COc1ccc(Cn2c3c(cc(OS(=O)(=O)C(F)(F)F)c2=O)Cc2ccccc2-3)cc1,–,50 µM,3.6 µM,46.2 µM and 17 µM,8.26 µM,50 µM and > 100 µM,7.24 µM,50 µM and > 100 µM,5.12 µM,50 µM and > 100 µM,> 100 µM,50 µM and > 100 µM,9.07 µM,50 µM and > 100 µM,–,50 µM,8.54 µM,50 µM and > 100 µM,23.7 µM,50 µM and > 100 µM
COc1ccccc1/C=C/C(=O)c1ccccc1,17 µM,31.8 µM,2.18 µM,20.9 µM,15.2 µM,36.6 µM,4.11 µM,17.4 µM,5.92 µM,15.2 µM,18.9 µM,36.5 µM,11.2 µM,28 µM,0.56 µM,3.16 µM,13.1 µM,27 µM,12.7 µM,26.4 µM
Cn1c2c(c3ccc(Cl)c(Cl)c31)C(C#N)C1(CCNCC1)NC2=O (stereo unspecified),1.31 µM,2.69 µM,1.96 µM,3.91 µM,2.72 µM,9.22 µM,1.55 µM,3.42 µM,1.42 µM,2.9 µM,1.49 µM,4.68 µM,2.83 µM,8.85 µM,1.7 µM,3.87 µM,1.77 µM,4.89 µM,3.1 µM,13 µM
